According to article PMC7002685, “Inhibition of vascular calcification by inositol phosphates derivatized with ethylene glycol oligomers” (Nature Communications, 2020):
Several values for one entry are separate records, joined by “and”; a condition that tells them apart may be missing. Equal entries are not always repeated. Where two headings read alike, the source gives them in different places.

Key:
[1] = PK in healthy rats, s.c.; assay type: in vivo, male Sprague-Dawley rats; details: male, Sprague-Dawley, rat, in vivo, sc; for Cmax: read-out: Cmax
[2] = VSMC viability (MTS) in high-CaP medium; assay type: cell-based, human; details: human, read-out: VSMC viability (MTS), % of medium control
[3] = test system: primary human VSMCs; test: VSMC viability (MTS) in high-CaP medium; assay type: cell-based
[4] = Inhibition of calcium phosphate precipitation in serum-free buffer; assay type: physicochemical
From the text: calcification in organs other than these are available from the present study.
We have included the latest research on CPPs and the respective literature now in the introduction (p. 4, line 74 ff.).
The way I see it the compound stabilizes CPP1, which can be more easily cleared unless it occurs in very high amounts and cannot be cleared at all. Therefore it is important to measure renal mineral clearance ± compound (see comment for Fig 3)
We have amended the discussion in the revised manuscript with respect to the hypothesis on the mechanism of action of (OEG2)2-IP4 postulated by the reviewer. (p. 32, line 614 ff.). We have further addressed the mechanism of action in response to Reviewer #4 Comment 3.
Did they test if (OEG2)2-IP4 compound alone stabilized supersaturated Ca and Pi solutions by forming colloids akin to CPP? […]
and phosphate and formation of hydroxyapatite with the assay from Heiss, A. et al.5. In brief, compound, 10 mM calcium solution and 6 mM phosphate solution in Hepes buffered saline (pH 7.4, RT) were incubated for 90 min at 37 °C and centrifuged at 8 000 x g for 5 min. The recovered pellet was dissolved in 1% (v/v) acetic acid and the calcium content quantified […]. (OEG2)2-IP4 alone stabilized supersaturated calcium and phosphate in […]
CPP1s (Rh < 100 nm) were detected by dynamic light scattering. […]
synergistic effect of (OEG2)2-IP4 with endogenous calcification inhibitors, such as fetuin-A in […]
that are not physiological (no serum), we prefer not to include these additional data in the […]

[5] = test system: CPPs; test: DLS of CPP hydrodynamic diameter in human serum; details: added to CPP1s at a final concentration of 30 µM
Protocol: To confirm the screening assay data, the hydrodynamic diameter of the CPPs was measured by dynamic light scattering (DLS).
Human serum studies were performed under sterile conditions at 37 °C as described previously. […] For serum background measurements, saline, human serum, and 100 mM HBS (pH 7.4 (RT)) were combined in a volume ratio of 2:8:10. […] The mixtures were incubated with continual slow mixing on a rotator (240 rotations/min, IKA KS 130 Basics Orbital Shaker) at 37 °C. After 1, 3, and 5 h of incubation, 500 µL aliquots were drawn under sterile conditions to prevent microorganism growth contamination and subjected to DLS analysis at 37 °C. For each experiment, three replicates were produced and a single measurement per sample and time point was performed.

[6] = test system: primary human VSMCs; test: High-CaP medium-induced VSMC calcification; assay type: cell-based; details: for VSMC calcium deposition, % of high-CaP control: high-CaP medium, 5 days
Protocol: Incubation of VSMCs in high-CaP medium induced cell monolayer calcification after 5 days (Fig. 3b). […] The effect became significant from 0.1 µM (OEG2)2-IP4 on, where a 54% reduction in calcification was observed compared to untreated high-CaP medium-exposed cells.
Primary human VSMCs (C-12533, PromoCell, Heidelberg, Germany) were cultured according to the manufacturer's guidelines in SMC-2 culture medium (C-22062, PromoCell) and used up to passage 7. For calcification experiments cells were seeded onto 24-well plates (TPP) at a density of 20,000 cells/well and left to attach for 48–72 h. Complete medium was M199 medium (31150022, Thermo Fischer Scientific), supplemented with 10% v/v FBS (10270106, Thermo Fisher Scientific, Waltham, MA), 1% v/v penicillin/streptomycin (15140122, Thermo Fisher Scientific), and 4 mM L-glutamine (25030024, Thermo Fisher Scientific)[80]. Calcification of cell monolayers was induced as described previously[81] by treatment with CPP2-supplemented (50 µg Ca/mL) medium with or without test compounds (1, 3, 10, 30, and 100 µM) at a volume of 1 mL/well for 48 h at 37 °C, 5% CO2. In a second assay, calcification was induced similar to previous experiments[56] by cell treatment with or without test compounds (0.01, 0.1, 1, 10, and 100 µM) in complete medium supplemented with calcium (2.7 mM) and phosphate (2.5 mM) (CaP medium) at a volume of 1 mL/well for 5 days, and treatment medium was replaced on alternate days.
Calcium deposition on cell monolayers was assessed qualitatively by staining for calcium with 2% w/v Alizarin Red S aqueous solution (pH 4.2) (05600, Fluka Analytical). Cell monolayers in 24-well plates were washed with PBS (10010015, Thermo Fischer), fixed in 10% v/v NBF in PBS (F8775, Sigma-Aldrich) for 45 min at RT, washed with milli-Q water, incubated for 3 min with 300 µL Alizarin Red S solution, washed with milli-Q, and images were acquired using a Axiovert 35 microscope (Zeiss, Carl Zeiss Microscopy GmbH, Jena, Germany) at ×100 magnification. Calcium quantitation was performed after washing cells with PBS and then decalcifying cell monolayers with 0.1 M HCl overnight at 4 °C. Acidic supernatants were centrifuged (10,000 × g, 4 °C, 10 min) and calcium content was assessed using the calcium colorimetric assay.

[7] = 0.01 µM in high-CaP medium, replicates Fig. 3d

In the case of COCCOCCO[C@@H]1[C@@H](OP(=O)(O)O)[C@H](OCCOCCOC)[C@@H](OP(=O)(O)O)[C@@H](OP(=O)(O)O)[C@H]1OP(=O)(O)O [(OEG2)2-IP4, 4,6-Di-O-(methoxy-diethyleneglycol)-myo-inositol-1,2,3,5-tetrakis(phosphate)], the AUC(0-t) ([1]; 10 mg/kg, 10 mg/kg s.c., t = 360 min) is reported as 19.8 µM·h, the AUC(0-t) ([1]; 50 mg/kg, 50 mg/kg s.c., tlast 1440 min) is reported as 120 µM·h and the AUC(0-inf) ([1]; 10 mg/kg s.c.) is reported as 19.9 µM·h. It also gave a Tmax ([1]; 10 mg/kg s.c.) of 0.417 h, a half-life ([1]; 10 mg/kg s.c., healthy rats) of 0.783 ± 0.0167 h and a Cmax ([1]; 10 mg/kg s.c.) of 12 ± 1 µM. The AUC(0-inf) ([1]; 50 mg/kg s.c.) was 122 µM·h, the half-life ([1]; 50 mg/kg s.c.) was 3.17 ± 1.1 h and the Cmax ([1]; 50 mg/kg s.c.) was 71 ± 26 µM. The MRT ([1]; read-out: mean residence time (MRT) (converted)) was 1.3 h, the viability at 5 days, 0.01 µM [2, 7] was 65.9% and the viability at 5 days, 0.1 µM ([2]; 0.1 µM in high-CaP medium) was 72.3%. For the same compound, the viability at 5 days, 10 µM ([2]; 10 µM in high-CaP medium) was 71.1%, the viability at 5 days, 100 µM ([2]; 100 µM in high-CaP medium) was 83.5% and the “VSMC viability (MTS), % of medium control” value (shortened to “VSMC viability (MTS), %”) [3, 7] was 53.4% and 66.46%. For the same compound, the “VSMC viability (MTS), %” value ([3]; 0.1 µM in high-CaP medium) was 53.2% and 65.81%, the “VSMC viability (MTS), %” value ([3]; 1 µM in high-CaP medium) was 67.8% and 94.42% and 93.48% and the “VSMC viability (MTS), %” value ([3]; 10 µM in high-CaP medium) was 90.2% and 89.04%. The “VSMC viability (MTS), %” value ([3]; 100 µM in high-CaP medium) was 91.5% and 93.79%, the “cell viability vs high-CaP medium control” value ([3]; 0.01 and 0.1 µM) was “slightly decreased” and the “precipitate formation, serum-free” value ([4]; 1 mM) was “no precipitate formed”. For the same compound, the “inhibition of calcium phosphate precipitation, serum-free” value ([4]; 10 mM calcium, 6 mM phosphate, HBS pH 7.4, 90 min, 37 °C) was “stabilized supersaturated calcium and phosphate in solution dose dependently”, the “CPP particle growth (DLS)” value [5] was “stabilized particle growth” and the “VSMC calcium deposition, % of high-CaP control” value (shortened to “VSMC calcium deposition, %”) ([6]; 0.01 µM, replicates Fig. 3b) was 129.5% and 91.16% and 131.6%. For the same compound, the “reduction in calcification vs untreated high-CaP medium-exposed cells” value ([6]; 0.1 µM) was 54%, the “VSMC calcium deposition, %” value ([6]; 0.1 µM) was 56.69% and 37.74% and 44.37% and the “VSMC calcium deposition, %” value ([6]; 1 µM) was 4.7% and 5.812% and 10.69%. For the same compound, the “VSMC calcium deposition, %” value ([6]; 10 µM) was 4.402% and -0.7134% and 6.025%, the “VSMC calcium deposition, %” value ([6]; 100 µM) was 4.139% and 1.382% and 4.723% and the calcium deposition ([6]; above 1 µM) was “almost completely abrogated”.
